Test system: 935938-334-R-J1-PDC complex spheroid viability
Assay: Anticancer human tumor 935938-334-R-J1-PDC patient-derived small intestine adenocarcinoma cell line growth inhibition [POLQ]
Details: for IC50: curve of first compound; for viability, T/C: stronger effect = lower value; active = viability on the fitted dose curve at most 10% of control; inactive = the rest
Procedure, shortened: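 Patient-derived tumour cells were co-cultured with HUVEC and mesenchymal stem cells as multicellular spheroids at 37 °C. They were treated with POLQ inhibitors (novobiocin, ART-558, RP6685) alone or combined with other agents. Top concentrations were at or near clinical Cmax (otherwise 10 microM; SN-38 at 1 microM), decreasing in half-log steps.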

[1] = second compound 0.0316 µM, first compound 0.0316 µM
[2] = second compound 0.0316 µM, first compound 0.1 µM
[3] = second compound 0.0316 µM, first compound 0.316 µM
[4] = second compound 0.0316 µM, first compound 1 µM
[5] = second compound 0.0316 µM, first compound 3.16 µM
[6] = second compound 0.0316 µM, first compound 10 µM
[7] = second compound 0.1 µM, first compound 0.0316 µM
[8] = second compound 0.1 µM, first compound 0.1 µM
[9] = second compound 0.1 µM, first compound 0.316 µM
[10] = second compound 0.1 µM, first compound 1 µM
[11] = second compound 0.1 µM, first compound 3.16 µM
[12] = second compound 0.1 µM, first compound 10 µM
[13] = second compound 0.316 µM, first compound 0.0316 µM
[14] = second compound 0.316 µM, first compound 0.1 µM
[15] = second compound 0.316 µM, first compound 0.316 µM
[16] = second compound 0.316 µM, first compound 1 µM
[17] = second compound 0.316 µM, first compound 3.16 µM
[18] = second compound 0.316 µM, first compound 10 µM
[19] = second compound 1 µM, first compound 0.0316 µM
[20] = second compound 1 µM, first compound 0.1 µM
[21] = second compound 1 µM, first compound 0.316 µM
[22] = second compound 1 µM, first compound 1 µM
[23] = second compound 1 µM, first compound 3.16 µM
[24] = second compound 1 µM, first compound 10 µM
[25] = second compound 3.16 µM, first compound 0.0316 µM
[26] = second compound 3.16 µM, first compound 0.1 µM
[27] = second compound 3.16 µM, first compound 0.316 µM
[28] = second compound 3.16 µM, first compound 1 µM
[29] = second compound 3.16 µM, first compound 3.16 µM
[30] = second compound 3.16 µM, first compound 10 µM
[31] = second compound 10 µM, first compound 0.0316 µM
[32] = second compound 10 µM, first compound 0.1 µM
[33] = second compound 10 µM, first compound 0.316 µM
[34] = second compound 10 µM, first compound 1 µM
[35] = second compound 10 µM, first compound 3.16 µM
[36] = second compound 10 µM, first compound 10 µM
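Also: spheroids exposed to drugs for seven days before viability read.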
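For viability, T/C in this document: 100% = DMSO vehicle control wells.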

O=C(Nc1ccc(O)c(NS(=O)(=O)c2ccc(F)cc2)c1)c1ccc(-c2ccccc2)cc1 + Nc1ccc(C#CCN(C(=O)Cc2ncc(C(F)(F)F)cc2C(F)(F)F)c2ccc(F)cc2)nn1
7.74 µM: IC50 (second compound 10 µM)
> 10 µM: IC50 (second compound 0.0316 µM) | IC50 (second compound 0.1 µM) | IC50 (second compound 0.316 µM) | IC50 (second compound 1 µM) | IC50 (second compound 3.16 µM)
inactive: viability, T/C [1] 107% | viability, T/C [2] 120% | viability, T/C [3] 108% | viability, T/C [4] 89.2% | viability, T/C [5] 81.7% | viability, T/C [6] 64.6% | viability, T/C [7] 91.9% | viability, T/C [8] 83.1% | viability, T/C [9] 91.3% | viability, T/C [10] 106% | viability, T/C [11] 104% | viability, T/C [12] 79% | viability, T/C [13] 112% | viability, T/C [14] 92.9% | viability, T/C [15] 96.8% | viability, T/C [16] 110% | viability, T/C [17] 112% | viability, T/C [18] 67.2% | viability, T/C [19] 83.1% | viability, T/C [20] 105% | viability, T/C [21] 114% | viability, T/C [22] 126% | viability, T/C [23] 112% | viability, T/C [24] 59.4% | viability, T/C [25] 91.8% | viability, T/C [26] 98% | viability, T/C [27] 111% | viability, T/C [28] 101% | viability, T/C [29] 116% | viability, T/C [30] 70.9% | viability, T/C [31] 127% | viability, T/C [32] 85.6% | viability, T/C [33] 101% | viability, T/C [34] 94.5% | viability, T/C [35] 99.5% | viability, T/C [36] 35.9%

C#Cc1c(F)ccc2cc(O)cc(-c3ncc4c(N5CC6CCC(C5)N6)nc(OCC56CCCN5CC(F)C6)nc4c3F)c12 (stereo not drawn) + COC1C(OC(N)=O)C(O)C(Oc2ccc3c(O)c(NC(=O)c4ccc(O)c(CC=C(C)C)c4)c(=O)oc3c2C)OC1(C)C
2.62 µM: IC50 (second compound 1 µM)
2.92 µM: IC50 (second compound 10 µM)
1.84 µM: IC50 (second compound 0.316 µM)
5.68 µM: IC50 (second compound 0.1 µM)
inactive: viability, T/C [1] 84.6% | viability, T/C [2] 100% | viability, T/C [3] 70.6% | viability, T/C [4] 47.5% | viability, T/C [5] 47.1% | viability, T/C [6] 29.9% | viability, T/C [7] 76.3% | viability, T/C [8] 93.5% | viability, T/C [9] 111% | viability, T/C [10] 73.1% | viability, T/C [11] 61.5% | viability, T/C [12] 41% | viability, T/C [13] 106% | viability, T/C [14] 79.6% | viability, T/C [15] 121% | viability, T/C [16] 52% | viability, T/C [17] 62.6% | viability, T/C [18] 33.8% | viability, T/C [19] 92.8% | viability, T/C [20] 81.2% | viability, T/C [21] 75.8% | viability, T/C [22] 65% | viability, T/C [23] 42% | viability, T/C [24] 44.1% | viability, T/C [25] 96.7% | viability, T/C [26] 72% | viability, T/C [27] 75.9% | viability, T/C [28] 86.4% | viability, T/C [29] 43.1% | viability, T/C [30] 48.6% | viability, T/C [31] 65.6% | viability, T/C [32] 97.9% | viability, T/C [33] 77.4% | viability, T/C [34] 57.2% | viability, T/C [35] 54.8% | viability, T/C [36] 43.9%
6.23 µM: IC50 (second compound 3.16 µM)
0.848 µM: IC50 (second compound 0.0316 µM)

C=CCn1c(=O)c2cnc(Nc3ccc(N4CCN(C)CC4)cc3)nc2n1-c1cccc(C(C)(C)O)n1 + Nc1ccc(C#CCN(C(=O)Cc2ncc(C(F)(F)F)cc2C(F)(F)F)c2ccc(F)cc2)nn1
0.592 µM: IC50 (second compound 0.316 µM)
0.661 µM: IC50 (second compound 0.1 µM)
0.478 µM: IC50 (second compound 10 µM)
inactive: viability, T/C (second compound 0.0316 µM, first compound 0.00316 µM) 90.4% | viability, T/C (second compound 0.0316 µM, first compound 0.01 µM) 93.5% | viability, T/C [1] 73.8% | viability, T/C [2] 79.8% | viability, T/C [3] 77.2% | viability, T/C [4] 19.1% | viability, T/C (second compound 0.1 µM, first compound 0.00316 µM) 76.5% | viability, T/C (second compound 0.1 µM, first compound 0.01 µM) 81.3% | viability, T/C [7] 92.6% | viability, T/C [8] 96.6% | viability, T/C [9] 89.5% | viability, T/C [10] 29.1% | viability, T/C (second compound 0.316 µM, first compound 0.00316 µM) 85.8% | viability, T/C (second compound 0.316 µM, first compound 0.01 µM) 70.4% | viability, T/C [13] 72.1% | viability, T/C [14] 99.6% | viability, T/C [15] 77.1% | viability, T/C [16] 26.2% | viability, T/C (second compound 1 µM, first compound 0.00316 µM) 80% | viability, T/C (second compound 1 µM, first compound 0.01 µM) 105% | viability, T/C [19] 82.3% | viability, T/C [20] 107% | viability, T/C [21] 43.6% | viability, T/C [22] 25.4% | viability, T/C (second compound 3.16 µM, first compound 0.00316 µM) 95.9% | viability, T/C (second compound 3.16 µM, first compound 0.01 µM) 79.3% | viability, T/C [25] 61.8% | viability, T/C [26] 85.4% | viability, T/C [27] 88.7% | viability, T/C [28] 24.3% | viability, T/C (second compound 10 µM, first compound 0.00316 µM) 96.7% | viability, T/C (second compound 10 µM, first compound 0.01 µM) 82.6% | viability, T/C [31] 118% | viability, T/C [32] 81.3% | viability, T/C [33] 65.4% | viability, T/C [34] 25.2%
0.273 µM: IC50 (second compound 1 µM)
0.601 µM: IC50 (second compound 3.16 µM)
0.534 µM: IC50 (second compound 0.0316 µM)

CCCS(=O)(=O)Nc1ccc(F)c(C(=O)c2c[nH]c3ncc(-c4ccc(Cl)cc4)cc23)c1F + Nc1ccc(C#CCN(C(=O)Cc2ncc(C(F)(F)F)cc2C(F)(F)F)c2ccc(F)cc2)nn1
> 10 µM: IC50 (second compound 0.316 µM) | IC50 (second compound 1 µM)
inactive: viability, T/C [1] 114% | viability, T/C [2] 112% | viability, T/C [3] 117% | viability, T/C [4] 135% | viability, T/C [5] 113% | viability, T/C [6] 45% | viability, T/C [7] 126% | viability, T/C [8] 138% | viability, T/C [9] 109% | viability, T/C [10] 140% | viability, T/C [11] 131% | viability, T/C [12] 47.3% | viability, T/C [13] 118% | viability, T/C [14] 121% | viability, T/C [15] 90.9% | viability, T/C [16] 165% | viability, T/C [17] 120% | viability, T/C [18] 50.3% | viability, T/C [19] 103% | viability, T/C [20] 97.4% | viability, T/C [21] 95.1% | viability, T/C [22] 112% | viability, T/C [23] 129% | viability, T/C [24] 63.2% | viability, T/C [25] 110% | viability, T/C [26] 121% | viability, T/C [27] 140% | viability, T/C [28] 158% | viability, T/C [29] 121% | viability, T/C [30] 45.6% | viability, T/C [31] 104% | viability, T/C [32] 125% | viability, T/C [33] 145% | viability, T/C [34] 174% | viability, T/C [35] 151% | viability, T/C [36] 50%
9.37 µM: IC50 (second compound 3.16 µM)
9.98 µM: IC50 (second compound 10 µM)
9.61 µM: IC50 (second compound 0.1 µM)
9.23 µM: IC50 (second compound 0.0316 µM)
